System: HCoV-OC43
Test: Time-of-addition, CPE reduction in MRC-5 cells, HCoV-OC43
Format: cell-based, Human coronavirus OC43
Details: HCoV-OC43, MRC-5 cells, 48 h
Procedure: For antiviral activity, cells in 96-well plates were infected and treated with test compounds as indicated and incubated for 48–72 h. Cell viability was quantified by WST (EZ-Cytox) at 450 nm on the same reader. Cytoprotective effect was calculated by normalizing to infected DMSO controls and converting to percent protection: % Protection = ((V_drug + virus − V_virus-only)/(V_mock − V_virus-only)) × 100.
For HCoV-OC43, TOA was assessed by CPE reduction in MRC-5 cells and by TCID50 on Vero E6 (no IFA collected).
Figure S14. Time-of-addition (TOA) analysis of KB-2777 against HCoV-NL63 (48 h). (a) CPE-reduction assay. KB-2777 was applied at 20 µM (blue) or 5 µM (red) under the indicated TOA conditions (Full, Pre, Co, Post, DMSO).
Cell protection (%) was calculated relative to the DMSO control. Bars show mean ± SD (n = 3). […] (b) Infectious progeny released under the same TOA conditions, quantified as log10(TCID₅₀/mL) from culture supernatants (see Methods). […]
Figure S15. […] Cell protection (%) was calculated relative to the DMSO control. […]
Statistics: one-way ANOVA with Dunnett’s multiple comparisons vs DMSO; *P<0.05, **P<0.01, ***P<0.001, ****P<0.0001. (b) Infectious progeny released under the same TOA conditions, quantified as log₁₀(TCID₅₀/mL) from culture supernatants by endpoint dilution on Vero E6 indicator cells (Spearman–Kärber method; see Methods). […]

How did the “CPE reduction across TOA regimens” value turn out when `COc1cccc(-c2oc(-c3ccc(C(F)(F)F)cc3)nc2C(=O)NCC2CC2)c1` [KB-2777, N-(cyclopropylmethyl)-5-(3-methoxyphenyl)-2-(4-(trifluoromethyl)phenyl)Oxazole-4-Carboxamide] was run?
Its value is “greatest antiviral effect with full exposure, intermediate activity with pre- and post-treatment, and little or no effect with co-treatment”.
